# Source: PubChem BioAssay (NCI)
#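 Grown in 96-well plates, cells were treated for 48 hours with each compound at five concentrations. Insufficient inhibition: endpoint recorded as highest concentration tested. TGI is the concentration that stops growth completely.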
# Assays:
# Test in all cases: NCI-60 cell line screen, 48 h
# [1] = test system: 786-0 renal
# [2] = test system: A498 renal
# [3] = test system: A549 NSCLC
# [4] = test system: ACHN renal
# [5] = test system: BT-549 breast
# [6] = test system: CAKI-1 renal
# [7] = test system: CCRF-CEM leukemia
# [8] = test system: COLO 205 colon
# [9] = test system: DU-145 prostate
# [10] = test system: EKVX NSCLC
# [11] = test system: HCC-2998 colon
# [12] = test system: HCT-116 colon
# [13] = test system: HCT-15 colon
# [14] = test system: HL-60(TB) leukemia
# [15] = test system: HOP-62 NSCLC
# [16] = test system: HS 578T breast
# [17] = test system: HT29 colon
# [18] = test system: IGROV1 ovarian
# [19] = test system: K-562 leukemia
# [20] = test system: KM12 colon
# [21] = test system: LOX IMVI melanoma
# [22] = test system: M14 melanoma
# [23] = test system: MALME-3M melanoma
# [24] = test system: MCF7 breast
# [25] = test system: MDA-MB-231 breast
# [26] = test system: MDA-MB-435
# [27] = test system: MDA-N
# [28] = test system: MOLT-4 leukemia
# [29] = test system: NCI-H226 lung
# [30] = test system: NCI-H23 lung
# [31] = test system: NCI-H460 lung
# [32] = test system: NCI/ADR-RES ovarian
# [33] = test system: OVCAR-3 ovarian
# [34] = test system: OVCAR-4 ovarian
# [35] = test system: OVCAR-5 ovarian
# [36] = test system: OVCAR-8 ovarian
# [37] = test system: PC-3 prostate
# [38] = test system: RPMI-8226 leukemia
# [39] = test system: RXF 393 renal
# [40] = test system: SF-268 CNS
# [41] = test system: SF-295 CNS
# [42] = test system: SF-539 CNS
# [43] = test system: SK-MEL-28 melanoma
# [44] = test system: SK-MEL-5 melanoma
# [45] = test system: SK-OV-3 ovarian
# [46] = test system: SN12C renal
# [47] = test system: SNB-19 CNS
# [48] = test system: SNB-75 CNS
# [49] = test system: SR leukemia
# [50] = test system: SW-620 colon
# [51] = test system: TK-10 renal
# [52] = test system: U251 CNS
# [53] = test system: UACC-257 melanoma
# [54] = test system: UACC-62 melanoma
# [55] = test system: UO-31 renal
# [56] = test system: HOP-92 NSCLC
# [57] = test system: NCI-H522 lung
# [58] = test system: SK-MEL-2 melanoma
# [59] = test system: T-47D breast
smiles,measurement,setting,value
O=C(C(=O)c1cc(-c2ccccc2)nc2ccc3ccccc3c12)c1ccccc1,TGI,[1],> 100 µM
same,TGI,[2],> 100 µM
same,TGI,[3],> 100 µM
same,TGI,[4],> 100 µM
same,TGI,[5],> 100 µM
same,TGI,[6],> 100 µM
same,TGI,[7],> 100 µM
same,TGI,[8],> 100 µM
same,TGI,[9],> 100 µM
same,TGI,[10],> 100 µM
same,TGI,[11],> 100 µM
same,TGI,[12],39 µM
same,TGI,[13],> 100 µM
same,TGI,[14],78.7 µM
same,TGI,[15],> 100 µM
same,TGI,[16],81.4 µM
same,TGI,[17],> 100 µM
same,TGI,[18],> 100 µM
same,TGI,[19],> 100 µM
same,TGI,[20],> 100 µM
same,TGI,[21],> 100 µM
same,TGI,[22],> 100 µM
same,TGI,[23],> 100 µM
same,TGI,[24],> 100 µM
same,TGI,[25],> 100 µM
same,TGI,[26],> 100 µM
same,TGI,[27],> 100 µM
same,TGI,[28],> 100 µM
same,TGI,[29],> 100 µM
same,TGI,[30],> 100 µM
same,TGI,[31],> 100 µM
same,TGI,[32],> 100 µM
same,TGI,[33],> 100 µM
same,TGI,[34],49.8 µM
same,TGI,[35],> 100 µM
same,TGI,[36],> 100 µM
same,TGI,[37],> 100 µM
same,TGI,[38],> 100 µM
same,TGI,[39],> 100 µM
same,TGI,[40],> 100 µM
same,TGI,[41],> 100 µM
same,TGI,[42],> 100 µM
same,TGI,[43],> 100 µM
same,TGI,[44],> 100 µM
same,TGI,[45],> 100 µM
same,TGI,[46],> 100 µM
same,TGI,[47],> 100 µM
same,TGI,[48],40.7 µM
same,TGI,[49],> 100 µM
same,TGI,[50],> 100 µM
same,TGI,[51],> 100 µM
same,TGI,[52],> 100 µM
same,TGI,[53],> 100 µM
same,TGI,[54],> 100 µM
same,TGI,[55],> 100 µM
CCOC(=O)NC(NCC(O)c1ccccc1)(C(F)(F)F)C(F)(F)F (centres undefined),TGI,[2],> 100 µM
same,TGI,[3],> 100 µM
same,TGI,[4],> 100 µM
same,TGI,[5],> 100 µM
same,TGI,[6],> 100 µM
same,TGI,[7],> 100 µM
same,TGI,[9],> 100 µM
same,TGI,[10],> 100 µM
same,TGI,[11],> 100 µM
same,TGI,[12],> 100 µM
same,TGI,[13],> 100 µM
same,TGI,[14],> 100 µM
same,TGI,[15],> 100 µM
same,TGI,[56],> 100 µM
same,TGI,[16],> 100 µM
same,TGI,[17],> 100 µM
same,TGI,[18],> 100 µM
same,TGI,[19],> 100 µM
same,TGI,[20],> 100 µM
same,TGI,[21],> 100 µM
same,TGI,[22],> 100 µM
same,TGI,[23],> 100 µM
same,TGI,[24],> 100 µM
same,TGI,[25],> 100 µM
same,TGI,[26],> 100 µM
same,TGI,[27],> 100 µM
same,TGI,[28],> 100 µM
same,TGI,[29],> 100 µM
same,TGI,[30],> 100 µM
same,TGI,[31],> 100 µM
same,TGI,[57],> 100 µM
same,TGI,[33],> 100 µM
same,TGI,[35],> 100 µM
same,TGI,[38],> 100 µM
same,TGI,[39],> 100 µM
same,TGI,[40],> 100 µM
same,TGI,[42],> 100 µM
same,TGI,[58],> 100 µM
same,TGI,[43],> 100 µM
same,TGI,[44],> 100 µM
same,TGI,[45],> 100 µM
same,TGI,[46],> 100 µM
same,TGI,[47],> 100 µM
same,TGI,[48],> 100 µM
same,TGI,[49],> 100 µM
same,TGI,[50],> 100 µM
same,TGI,[59],> 100 µM
same,TGI,[51],> 100 µM
same,TGI,[52],> 100 µM
same,TGI,[53],> 100 µM
same,TGI,[54],> 100 µM
same,TGI,[55],> 100 µM
CC(C)NC(=O)OCc1c(COC(=O)NC(C)C)c(-c2cc[n+](COC(=O)CC(C)(C)C)cc2)n2c1CCC2,TGI,[1],> 100 µM
same,TGI,[2],> 100 µM
same,TGI,[3],> 100 µM
same,TGI,[5],> 100 µM
same,TGI,[6],> 100 µM
same,TGI,[7],> 100 µM
same,TGI,[8],> 100 µM
same,TGI,[10],> 100 µM
same,TGI,[11],> 100 µM
same,TGI,[13],> 100 µM
same,TGI,[14],> 100 µM
same,TGI,[15],> 100 µM
same,TGI,[56],> 100 µM
same,TGI,[16],> 100 µM
same,TGI,[18],> 100 µM
same,TGI,[19],> 100 µM
same,TGI,[22],> 100 µM
same,TGI,[24],> 100 µM
same,TGI,[25],> 100 µM
same,TGI,[27],> 100 µM
same,TGI,[28],> 100 µM
same,TGI,[29],> 100 µM
same,TGI,[30],> 100 µM
same,TGI,[57],> 100 µM
same,TGI,[32],> 100 µM
same,TGI,[33],> 100 µM
same,TGI,[34],> 100 µM
same,TGI,[36],> 100 µM
same,TGI,[37],> 100 µM
same,TGI,[38],> 100 µM
same,TGI,[39],> 100 µM
same,TGI,[41],> 100 µM
same,TGI,[42],> 100 µM
same,TGI,[44],> 100 µM
same,TGI,[45],> 100 µM
same,TGI,[46],> 100 µM
same,TGI,[47],> 100 µM
same,TGI,[49],> 100 µM
same,TGI,[50],> 100 µM
same,TGI,[52],> 100 µM
same,TGI,[53],> 100 µM
same,TGI,[55],> 100 µM
